≈ marks a conversion by molar mass, not a printed value. Like-named read-outs stand apart in the source and are kept apart here.
Experiments:
C. neoformans = assay: microbe, parasite or virus in culture; format: cell-based, Cryptococcus neoformans; conditions: 48 h
From the text: (§1) Microbial strains: Microbial strains were procured from National Culture Collection of Pathogenic Fungi (NCCPF) at the Postgraduate Institute of Medical Education & Research (PGIMER), Chandigarh and Microbial Type Culture Collection and Gene bank (MTCC) at the Institute of Microbial Technology (IMTECH), Chandigarh, India. Peptides were screened against five different strains of fungi: viz. Candida albicans (NCCPF400034), Candida glabrata (MTCC 3019), Candida parapsilosis (NCCPF 440002), Candida krusei (NCCPF 440002) and Cryptococcus neoformans (NCCPF250316), and five strains of bacteria: viz. Escherichia coli (MTCC 2961), Staphylococcus aureus (MTCC 3160), Enterococcus faecalis (MTCC 439), Streptococcus pyogenes (MTCC 442) and Pseudomonas aeruginosa (MTCC 3542).
(§2) Growth media: Antifungal susceptibility testing was carried out using standard broth microdilution assays as per the Clinical and Laboratory Standards Institute (CLSI) guidelines for fungi. RPMI 1640 (Sigma), yeast extract, peptone and dextrose (YPED, Himedia) were used as the incubation broths. The cells were diluted to a cell density of 10^3 colony forming unit (CFU/mL) and incubated at 30 °C for 48 h. Furthermore, Muller Hinton (Himedia) media was utilized for bacterial strains and antibacterial activity was evaluated per CLSI guidelines for bacteria. Bacterial cells were diluted to a cell density of 10^5 CFU/mL and incubated at 37 °C for 24 h. Amphotericin B (Himedia, India) and rifampicin (Himedia, India) were used as standard drugs for the evaluation of activity against all the fungal and bacterial strains, respectively.
(§3) The stock solutions of peptides (2 mg/mL) were prepared in DMSO. Specific amounts of peptide from stock solution were added to a 96-well microtiter plate containing 100 μL of growth media and then serially diluted two-fold. A further 100 μL of growth media containing microbial cells were added to each well and incubated at 30–37 °C for 24–48 h. The optical density (OD) was measured at 600 nm using a BioStack Ready (BioTek Instruments, Winooski, VT, USA) microplate reader to analyze microbial growth inhibition, and IC50 and MIC values were calculated. To visualize the growth and inhibition pattern, a solution of 3-(4,5-dimethylthiazol-2-yl)-2,5-diphenyltetrazolium bromide (MTT) in water was added to the plate and incubated for 2–3 h. MTT reacts with the mitochondrial dehydrogenases, which are present only in a viable cell, to give blue colored formazan crystals. Therefore, a darker color indicates a high number of viable cells; however, non-viable cells appear pale or colorless.

C. albicans = assay: microbe, parasite or virus in culture; format: cell-based, Candida albicans; conditions: 48 h
From the text: as §1, §2, §3

C. glabrata = assay: microbe, parasite or virus in culture; format: cell-based, Candida glabrata; conditions: 48 h
From the text: as §1, §2, §3

C. parapsilosis = assay: microbe, parasite or virus in culture; format: cell-based, Candida parapsilosis; conditions: 48 h
From the text: as §1, §2, §3

C. krusei = assay: microbe, parasite or virus in culture; format: cell-based, Candida krusei; conditions: 48 h
From the text: as §1, §2, §3

E. faecalis = assay: microbe, parasite or virus in culture; format: cell-based, Enterococcus faecalis
S. aureus = assay: microbe, parasite or virus in culture; format: cell-based, Staphylococcus aureus
From the text: as §1
as §2, with “Bacterial cells were diluted to a cell density of 10^5 CFU/mL and incubated at 37 °C for 24 h.” left out
as §3

S. pyogens = assay: microbe, parasite or virus in culture; format: cell-based, Streptococcus pyogenes
E. coli = assay: microbe, parasite or virus in culture; format: cell-based, Escherichia coli
From the text: as §1
as §2, with “Bacterial cells were diluted to a cell density of 10^5 CFU/mL and incubated at 37 °C for 24 h.” left out
as §3

P. aeruginosa = assay: microbe, parasite or virus in culture; format: cell-based, Pseudomonas aeruginosa
C. neoformans cells = assay: Time kill assay; conditions: negative-control peptides, compared with untreated cells, 24 h

Row | IC50 (C. neoformans) | MIC (C. neoformans) | IC50 (C. albicans) | MIC (C. albicans) | IC50 (C. glabrata) | MIC (C. glabrata) | IC50 (C. parapsilosis) | MIC (C. parapsilosis) | IC50 (C. krusei) | MIC (C. krusei) | IC50 (E. faecalis; 48 h) | MIC (E. faecalis; 48 h) | IC50 (S. aureus; 48 h) | MIC (S. aureus; 48 h) | IC50 (S. pyogens; 48 h) | MIC (S. pyogens; 48 h) | IC50 (E. coli; 48 h) | MIC (E. coli; 48 h) | IC50 (P. aeruginosa; 48 h) | MIC (P. aeruginosa; 48 h) | SMILES | also measured
1 | 4.87 µg/mL (≈ 7.62 µM) | 8.86 µg/mL (≈ 13.9 µM) | >35.2 µg/mL | >64.0 µg/mL | >35.2 µg/mL | >64.0 µg/mL | >35.2 µg/mL | >64.0 µg/mL | >35.2 µg/mL | >64.0 µg/mL | >35.2 µg/mL | >64.0 µg/mL | >35.2 µg/mL | >64.0 µg/mL | >35.2 µg/mL | >64.0 µg/mL | >35.2 µg/mL | >64.0 µg/mL | >35.2 µg/mL | >64.0 µg/mL | COC(=O)[C@H](Cc1ncn(Cc2cccc(C(F)(F)F)c2)c1I)NC(=O)[C@@H](N)Cc1c[nH]c2ccccc12 [10e] | 
2 | 5.15 µg/mL (≈ 8.21 µM) |  | >35.2 µg/mL | >64.0 µg/mL | >35.2 µg/mL | >64.0 µg/mL | >35.2 µg/mL | >64.0 µg/mL | >35.2 µg/mL | >64.0 µg/mL | >35.2 µg/mL | >64.0 µg/mL | 35.2 µg/mL (≈ 56.1 µM) | 64.0 µg/mL (≈ 102 µM) | >35.2 µg/mL | >64.0 µg/mL | 35.2 µg/mL (≈ 56.1 µM) | 64.0 µg/mL (≈ 102 µM) | >35.2 µg/mL | >64.0 µg/mL | COC(=O)[C@H](Cc1ncn(Cc2ccc(C(C)(C)C)cc2)c1I)NC(=O)[C@@H](N)Cc1c[nH]c2ccccc12 [10b] | 
3 | 8.81 µg/mL (≈ 14.4 µM) | 16.02 µg/mL (≈ 26.1 µM) | >35.2 µg/mL | >64.0 µg/mL | >35.2 µg/mL | >64.0 µg/mL | >35.2 µg/mL | >64.0 µg/mL | >35.2 µg/mL | >64.0 µg/mL | >35.2 µg/mL | >64.0 µg/mL | >35.2 µg/mL | >64.0 µg/mL | >35.2 µg/mL | >64.0 µg/mL | >35.2 µg/mL | >64.0 µg/mL | >35.2 µg/mL | >64.0 µg/mL | COC(=O)[C@H](Cc1ncn(Cc2ccc(C(C)C)cc2)c1I)NC(=O)[C@@H](N)Cc1c[nH]c2ccccc12 [10c] | 
4 | >35.2 µg/mL | >64.0 µg/mL | >35.2 µg/mL | >64.0 µg/mL | >35.2 µg/mL | >64.0 µg/mL | >35.2 µg/mL | >64.0 µg/mL | >35.2 µg/mL | >64.0 µg/mL |  |  |  |  |  |  |  |  |  |  | COC(=O)[C@H](Cc1ncn(Cc2cc(C(C)(C)C)cc(C(C)(C)C)c2)c1I)NC(=O)[C@H](Cc1c[nH]c2ccccc12)NC(=O)OC(C)(C)C [9d] | Growth inhibition in time-kill profile (C. neoformans cells): did not show any growth inhibition
5 |  |  |  |  |  |  |  |  |  |  |  |  |  |  |  |  |  |  |  |  | CO[C@H]1/C=C/O[C@@]2(C)Oc3c(C)c(O)c4c(O)c(c(/C=N/N5CCN(C)CC5)c(O)c4c3C2=O)NC(=O)/C(C)=C\C=C\[C@H](C)[C@H](O)[C@@H](C)[C@@H](O)[C@@H](C)[C@H](OC(C)=O)[C@@H]1C [Rifampicin, reference compound] | IC50 (E. faecalis; Enterococcus faecalis, E. faecalis, read-out: IC50): 1 µg/mL (≈ 1.22 µM); MIC (E. faecalis; Enterococcus faecalis, E. faecalis, read-out: MIC): 2 µg/mL (≈ 2.43 µM); IC50 (S. aureus; Staphylococcus aureus): 2 µg/mL (≈ 2.43 µM); MIC (S. aureus; Staphylococcus aureus): 4 µg/mL (≈ 4.86 µM); IC50 (S. pyogens; Streptococcus pyogenes, S. pyogens, read-out: IC50): 1 µg/mL (≈ 1.22 µM); MIC (S. pyogens; Streptococcus pyogenes, S. pyogens, read-out: MIC): 2 µg/mL (≈ 2.43 µM); IC50 (E. coli; Escherichia coli): 1 µg/mL (≈ 1.22 µM); MIC (E. coli; Escherichia coli): 2 µg/mL (≈ 2.43 µM); IC50 (P. aeruginosa; Pseudomonas aeruginosa, P. aeruginosa, read-out: IC50): 16 µg/mL (≈ 19.4 µM); MIC (P. aeruginosa; Pseudomonas aeruginosa, P. aeruginosa, read-out: MIC): 32 µg/mL (≈ 38.9 µM)
6 |  | 32.05 µg/mL (≈ 46 µM) | >35.2 µg/mL | >64.0 µg/mL | >35.2 µg/mL | >64.0 µg/mL | >35.2 µg/mL | >64.0 µg/mL | >35.2 µg/mL | >64.0 µg/mL | >35.2 µg/mL | >64.0 µg/mL | >35.2 µg/mL | >64.0 µg/mL | >35.2 µg/mL | >64.0 µg/mL | >35.2 µg/mL | >64.0 µg/mL | >35.2 µg/mL | >64.0 µg/mL | COC(=O)[C@H](Cc1ncn(Cc2cccc(I)c2)c1I)NC(=O)[C@@H](N)Cc1c[nH]c2ccccc12 [10n, Trp-His[1-(3-iodobenzyl)-5-iodo]-OMe] | 
7 |  | 32.11 µg/mL (≈ 53 µM) | >35.2 µg/mL | >64.0 µg/mL | >35.2 µg/mL | >64.0 µg/mL | >35.2 µg/mL | >64.0 µg/mL | >35.2 µg/mL | >64.0 µg/mL | >35.2 µg/mL | >64.0 µg/mL | >35.2 µg/mL | >64.0 µg/mL | >35.2 µg/mL | >64.0 µg/mL | >35.2 µg/mL | >64.0 µg/mL | >35.2 µg/mL | >64.0 µg/mL | COC(=O)[C@H](Cc1ncn(Cc2cccc(Cl)c2)c1I)NC(=O)[C@@H](N)Cc1c[nH]c2ccccc12 [10l] | 
8 | 30.56 µg/mL (≈ 41.3 µM) | 55.57 µg/mL (≈ 75.1 µM) | >35.2 µg/mL | >64.0 µg/mL | >35.2 µg/mL | >64.0 µg/mL | >35.2 µg/mL | >64.0 µg/mL | >35.2 µg/mL | >64.0 µg/mL |  |  |  |  |  |  |  |  |  |  | COC(=O)[C@H](Cc1ncn(Cc2ccccc2C(F)(F)F)c1I)NC(=O)[C@H](Cc1c[nH]c2ccccc12)NC(=O)OC(C)(C)C [9f] | 
9 | 2.78 µg/mL (≈ 4.72 µM) | 4.64 µg/mL (≈ 7.87 µM) | >35.2 µg/mL | >64.0 µg/mL | >35.2 µg/mL | >64.0 µg/mL | >35.2 µg/mL | >64.0 µg/mL | >35.2 µg/mL | >64.0 µg/mL | >35.2 µg/mL | >64.0 µg/mL | >35.2 µg/mL | >64.0 µg/mL | >35.2 µg/mL | >64.0 µg/mL | >35.2 µg/mL | >64.0 µg/mL | >35.2 µg/mL | >64.0 µg/mL | COC(=O)[C@H](Cc1ncn(Cc2cccc(F)c2)c1I)NC(=O)[C@@H](N)Cc1c[nH]c2ccccc12 [10k] | 
10 | 18.63 µg/mL (≈ 24.8 µM) | 33.88 µg/mL (≈ 45.1 µM) | >35.2 µg/mL | >64.0 µg/mL | >35.2 µg/mL | >64.0 µg/mL | >35.2 µg/mL | >64.0 µg/mL | >35.2 µg/mL | >64.0 µg/mL |  |  |  |  |  |  |  |  |  |  | COC(=O)[C@H](Cc1ncn(Cc2cccc(Br)c2)c1I)NC(=O)[C@H](Cc1c[nH]c2ccccc12)NC(=O)OC(C)(C)C [9m] | 
11 | 17.73 µg/mL (≈ 25.1 µM) | 32.25 µg/mL (≈ 45.6 µM) | >35.2 µg/mL | >64.0 µg/mL | >35.2 µg/mL | >64.0 µg/mL | >35.2 µg/mL | >64.0 µg/mL | >35.2 µg/mL | >64.0 µg/mL |  |  |  |  |  |  |  |  |  |  | COC(=O)[C@H](Cc1ncn(Cc2cc(F)cc(F)c2)c1I)NC(=O)[C@H](Cc1c[nH]c2ccccc12)NC(=O)OC(C)(C)C [9j] | 
